This is an account of results in patent US20080261955A1, “Use of Pharmaceutical Compositions of Lofepramine for the Treatment of Adhd, Cfs, Fm and Depression” (priority 2004, published 2008).

One series deals with ECG interval. To be noted: rats infused with the antidepressant; cited from earlier work.
The subject of series [1] is ADHD. As to the kind of experiment: Two large well-controlled studies of atomoxetine, CAARS scores. Format: in vivo, human. The settings on record: overall. The text has this:
In the second study, these improvements were 30.1% vs. 19.6%, respectively. Overall these two studies have indicated a placebo response of about 20% and difference between active and placebo of about 10%. Moreover, atomoxetine is not a stimulant, a point that provides an effective marketing tool for this drug.

Series [2] deals with ADHD. To be noted: cited from earlier work.
The conditions of series [3]: fatal poisoning / overdose; cited from earlier work.
For series [4] the following is noted: desipramine treatment; cited from earlier work.
Series [5] concerns ADD (as defined in DSM III). To be noted: 31 patients treated with 4.6 mg/kg, children and adolescents; cited from earlier work.
In another series the test system is hyperactivity (ADHD). To be noted: doses as low as 75 mg/day; cited from earlier work.
The conditions of series [6]: toxic levels similar to that found in the SSRI's.
A further series has as its system Chronic Fatigue Syndrome. The experiment in a line: Example 3: lofepramine in Chronic Fatigue Syndrome patients, cross-over design. Format: in vivo, human. The settings on record: 44 patients, doses up to 210 mg/day over 26 weeks. Here is the method: Forty-four patients meeting the criteria for Chronic Fatigue Syndrome were recruited in a cross-over design. […] Patients were administered lofepramine at doses up to 210 mg/day over the 26 weeks of the study. Patients were assessed using the FibroFatigue Scale (interview scale) and the CDR battery of cognitive tests (computer based assessment of cognition). Other assessments included HADS and Clinical Global Improvement (CGI). Four CDR assessments and 9 Fibrofatigue assessments were carried out.

In series [7] the test system is Hypothalamic-Pituitary-Adrenal axis. The experiment in a line: HPA axis activity in CFS. Format: in vivo, human. The settings on record: along with symptomatic relief. The text has this: While not being bound by any one mechanisms of action, previous work by one of the co-inventors here, has supported the evidence that there is Hypothalamic-Pituitary-Adrenal axis under activity in CFS patients. (Scott […] and […]; Acta Psychiatr Scand 1998 June 97: 450-7).

Series [8] has as its system ADHD. As to the kind of experiment: Example 2: lofepramine versus placebo in adult patients with ADHD (CAARS). Format: in vivo, human. The settings on record: 20 adult patients, oral 140 to 280 mg/day, 3 months. How it is done:
A study was carried out to access the efficacy of lofepramine compared to placebo in 20 adult patients with ADHD at a single study centre. Active treatment was for 3 months. Patients with DSM-IV diagnosis of ADHD were recruited. Patients were assessed using the patient-rated Connors Adult ADH Rating Scales (CAARS). Initially, there was a single blind placebo period between day 0 and week 3, and patients who responded to placebo were withdrawn. Oral administration of lofepramine (140 mg/day) was commenced from week 3 onwards. Patients showing little response to this dose and tolerable side effects were titrated upwards to 210 mg/day and then to 280 mg/day.

The test system of the next series is DSM-IV ADHD. The experiment in a line: Example 1: case reports of ADHD patients on lofepramine. Format: in vivo, human. The settings on record: for behaviour: child; for general behaviour and concentration: person. How it is done: Patient is a person with a diagnosis of DSM-IV ADHD. Their education was severely impacted by an inability to sustain attention for any length of time and they were also very disruptive in class. Their inability to sustain attention was causing difficulty at work. They were referred by their primary care physician. They were commenced on lofepramine 70 mg twice daily. […] The dose of lofepramine was increased to 70 mg three times daily. […] Within 48 hours their concentration deteriorated and they were once again in trouble at work. A week later the medication was recommenced and they have now remained well for approximately 4 months. They are performing effectively at work and their parents are happy with the situation. A child had been on methylphenidate for 2 years which was prescribed for ADHD characterised by poor concentration and impulsive behaviour. They stopped taking the medication and deteriorated. When they attended the clinic they were commenced on lofepramine 70 mg twice daily. […] This has been sustained for 4 months.

For another series, the target named is dopamine D2 receptor (Homo sapiens, UniProt P14416). The experiment in a line: Activity at the dopamine D2 receptor.
Chain of dopamine D2 receptor (P14416 whole entry, species assumed): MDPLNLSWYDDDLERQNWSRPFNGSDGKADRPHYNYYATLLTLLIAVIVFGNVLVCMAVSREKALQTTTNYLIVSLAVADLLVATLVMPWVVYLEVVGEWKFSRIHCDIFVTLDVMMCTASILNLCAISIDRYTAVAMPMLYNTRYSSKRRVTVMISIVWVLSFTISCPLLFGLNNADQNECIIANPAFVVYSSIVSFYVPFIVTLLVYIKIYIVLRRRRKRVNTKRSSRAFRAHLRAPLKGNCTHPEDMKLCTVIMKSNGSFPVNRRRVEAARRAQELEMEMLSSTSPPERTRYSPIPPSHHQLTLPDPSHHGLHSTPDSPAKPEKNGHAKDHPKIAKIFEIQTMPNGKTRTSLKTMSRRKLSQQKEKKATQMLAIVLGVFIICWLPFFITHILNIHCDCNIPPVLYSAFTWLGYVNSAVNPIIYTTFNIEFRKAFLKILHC
Series [9] has as its system noradrenaline reuptake versus serotonin (5HT) reuptake. The experiment in a line: NA:5HT relative potencies based on Ki data (Bolden-Watson and Richelson). Format: biochemical. To be noted: basis not stated. The text has this: The selectivity a drug for various receptors may be compared by use of comparative Ki's and not comparative IC 50 values. (Bolden-Watson, C and Richelson, E., Life Sci, (52), 1993, 1023-1029), which is hereby incorporated by reference.

For series [10], the system named is serotonin synthesis in the brain. As to the kind of experiment: Serotonin synthesis in the brain.
Another series in a line: Sedation. To be noted: in vivo.

Where two headings read alike, the source gives them in different places.

Turning to `CN(C)CCC=C1c2ccccc2CCc2ccccc21` [amitriptyline], the “effect on ECG interval” value with ECG interval is recorded as “prolong the ECG interval”.

For the molecule `CNCC[C@@H](Oc1ccccc1C)c1ccccc1` [atomoxetine], the “difference between active and placebo in reduction of CAARS scores” value with ADHD [1] is given as “about 10%”. The “mean reduction of CAARS scores” value in the series with ADHD [2] (first study, placebo 18.1%) was 28.3%; in the series on ADHD [2] (second study, placebo 19.6%) it was 30.1%.

In the case of `CNCCCN1c2ccccc2CCc2ccccc21` [desipramine], the “effect on ECG interval” value in the series on ECG interval is reported as “prolong the ECG interval”. Also, the “fatalities per million prescriptions” value in series [3] is listed as 200.9 per million prescriptions. Besides, the “diastolic blood pressure, heart rate and ECG conductance” value in [4] was “asymptomatic and generally small increases”. The “patients with a significant response” value in series [5] is given as “around 70%”.

As to `CN(C)CCCN1c2ccccc2CCc2ccccc21` [imipramine], the “effect on ECG interval” value in the series on ECG interval is listed as “prolong the ECG interval”. Besides, the “time to begin to reduce hyperactivity” value in the series with hyperactivity (ADHD) is 3 to 10 days.

On to `CN(CCCN1c2ccccc2CCc2ccccc21)CC(=O)c1ccc(Cl)cc1` [lofepramine], for which the “effect on ECG interval” value in the series on ECG interval was “does not”. The cardiotoxicity result in series [6] was “very low cardiotoxicity”. Moreover, the “fatalities per million prescriptions” value in series [3] is reported as 1.3 per million prescriptions. Further, the “FibroFatigue Scale, CDR cognitive tests, HADS and CGI” value with Chronic Fatigue Syndrome was “significant improvement on all scales”. The HPA activity result in [7] is “induces upregulation of HPA activity”. In the series on ADHD [8], the “CAARS scores versus placebo” value is on record as “significant benefit over placebo”. The behaviour result in the series on DSM-IV ADHD (70 mg three times daily, sustained for 4 months) is “major improvement”; in the series with DSM-IV ADHD (70 mg twice daily) it was “No immediate improvement”. The side-effects entry in the series with DSM-IV ADHD (patient report) was “no side-effects”. Further, the “general behaviour and concentration” value in the series with DSM-IV ADHD (70 mg three times daily, sustained for 3 months) is given as “continued improvement”; in the series with DSM-IV ADHD (70 mg twice daily, after 1 week), “significant improvement”. Moreover, the “activity at the D2 receptor” value on dopamine D2 receptor is listed as “potent activity”. In addition, the “NA:5HT ratio relative to that of desipramine” value in series [9] was “about four”. Also, the “NE:5-HT ratio compared with milnacipran” value in [9] is “higher than that of milnacipran”. Moreover, the “serotonin synthesis in the brain” value in series [10] is “up-regulate serotonin synthesis in the brain”. In “Sedation”, the sedation result was “does not induce sedation”.

Take `COc1ccc(C(CN(C)C)C2(O)CCCCC2)cc1` (stereo not drawn) [venlafaxine]: the “fatalities per million prescriptions” value in series [3] is given as 13.2 per million prescriptions.
